Data as given in paper PMC12381781, “Structural and functional insights into the selective inhibition of mutant tau aggregation by purpurin and oleocanthal in frontotemporal dementia” (Protein Science : A Publication of the Protein Society, 2025).

Experiments:
[1] = tested on: Tau RD P301S FRET Biosensor cells; test: Biosensor cell seeding assay, post-transduction treatment; format: cell-based; conditions: for concentrations at which seeding was significantly reduced, post-transduction treatment: P301L fibrils transduced 24 h, then compound for 24 h; for seeding (CFP/YFP inclusions) after post-transduction treatment: WT fibrils transduced 24 h, then compound 0 to 10 μM for 24 h
Method: To further evaluate whether PUR and OLC can suppress pathological tau propagation, we performed post‐transduction treatment assays in Tau RD P301S FRET Biosensor cells. WT or P301L tau fibrils were first transduced into cells for 24 h, followed by treatment with PUR or OLC for an additional 24 h. Prior MTS assays confirmed that these concentrations were non‐toxic to biosensor cells (Figure S16).
Tau peptides were aggregated with or without PUR or OLC in a 7.4 pH aggregation buffer without ThT. After 48 h, the contents of each well were pooled to a final total volume of 120 μL. The concentration of the pooled Aggregation Reaction Products was measured using the Pierce™ BCA Protein Assay Kit (Thermo Fisher Scientific Inc., Cat. # 23225). The reaction products were standardized for cell transduction to a final concentration of 100 nM for both control and drug‐treated samples. The pooled aggregation mixture was sonicated using a Branson Ultrasonic™ Sonifier Cup Horns (Marshall Scientific, Hampton, NH, USA) at 30% amplitude (15 s ON and 15 s OFF for 1 min) to fragment larger aggregates into smaller ones, facilitating consistent transduction.
Tau RD P301S FRET Biosensor cells were plated at 5 × 10^3 cells per well in PhenoPlate 384‐well, black, optically clear flat‐bottom plates (Revvity; Part # 6057302) pre‐coated with 50 μg/mL Poly‐ᴅ‐Lysine (Sigma‐Aldrich, Cat. # P6407). After plating, cells were incubated for 30 min at room temperature to promote better cell spreading before returning the plates to the incubator.
The next day, cells were transduced with 100 nM of aggregation mixture, which were either: (i) prepared in the absence (control) or presence of 10 μM PUR or OLC for co‐aggregation studies (Figure 5), or (ii) prepared exclusively in the absence of compounds for post‐transduction treatment studies (Figure 6). The aggregation mixtures were premixed with 0.2 μL per well TurboFect™ Transfection Reagent (Thermo Fisher Scientific Inc., Cat. # R0533) in 10 μL Opti‐MEM™ (Thermo Fisher Scientific Inc., Cat. #11058021) and added to cells.
For co‐aggregation studies (Figure 5), cells were cultured for 48 h after transduction before processing for imaging. […]
Cells were imaged on a Cell Voyager 7000S high‐content imaging system (Yokogawa, Tokyo, Japan) with a 20× objective. CFP/YFP inclusions of seeded tau were detected using a 488 nm laser line (Ex = 460–490 nm, Em = 500–550 nm), and Hoechst‐stained nuclei were detected using a 405 nm laser line (Ex = 360–400 nm, Em = 410–480 nm). […] Image analysis was performed using Signals Image Artist (Revvity) to quantify the number of cells (Hoechst‐stained nuclei) and intracellular CFP/YFP inclusions. […]

[2] = tested on: preformed R2R3 (P301L) fibrils; test: Elongation of preformed R2R3 (P301L) fibrils, ThT; format: biochemical; conditions: R2R3 P301L pre-aggregated 24 h, compound 10 μM; for fibril elongation, aggregation post-treatment as percentage of control (AUC after compound addition): further 24–30 h; for ThT-stained aggregates from post-treatment samples, confocal imaging: further 24 h
Method: Peptides were pre‐aggregated for 24 h with aggregation kinetics monitored by ThT fluorescence, after which 10 μM PUR or OLC was added, followed by an additional 24–30 h of incubation (Figure 4a). Aggregation kinetics was monitored by ThT fluorescence, and elongation was quantified as the AUC following compound addition, normalized to each replicate's maximum pre‐treatment fluorescence (Figure 4b). […] WT peptide fibril elongation was reduced to 15.5 ± 2.8% (PUR) and 45.2 ± 3.2% (OLC), and P301L peptide fibril elongation was limited to 31.8 ± 0.6% (PUR) and 85.6 ± 2.2% (OLC) (Figure 4b). Fluorescence microscopy imaging further confirmed the presence of reduced ThT‐positive aggregates following the addition of PUR and OLC (Figure S12). Similar inhibition trends, with PUR outperforming OLC, were also observed for V287I and N279K peptides (Figure S12).
FIGURE 4 Purpurin (PUR) and oleocanthal (OLC) inhibit elongation of preformed wild‐type (WT) and P301L tau fibrils. (a) The thioflavin T (ThT) fluorescence kinetics of pre‐aggregated R2R3 (WT and P301L) tau peptides treated with PUR or OLC (10 μM). Peptides were first allowed to aggregate for 24 h, followed by compound addition and continued incubation for an additional 24–30 h. Vertical dashed lines indicate the time point of compound addition. Curves are normalized to each replicate's maximum pre‐treatment ThT fluorescence. Source data are provided in the Data Availability Statement section. Mean ± SEM (n ≥ 3). (b) Aggregation levels post‐treatment, expressed as a percentage of control (untreated fibrils), calculated from the area under the curve after compound addition. Mean ± SEM (n ≥ 3). ***p < 0.001, **p < 0.01, one‐way ANOVA (Tukey's post hoc test).
Figure S12. Confocal imaging of ThT-stained aggregates from post-treatment samples in Figure 4. R2R3 (WT and P301L) tau peptides were incubated for 24 h to allow initial aggregation, followed by the addition of PUR or OLC (10 µM). After a further 24 h, reaction mixtures from compound-treated wells were collected, embedded in 0.05% low-melting agarose, and processed for imaging as described in Figure S11. […] Scale bar: 50 μm.

Row | Structure (SMILES) | concentrations at which seeding was significantly reduced, post-transduction treatment [1] | seeding (CFP/YFP inclusions) after post-transduction treatment [1] | fibril elongation, aggregation post-treatment as percentage of control (AUC after compound addition) [2] | ThT-stained aggregates from post-treatment samples, confocal imaging [2]
1 | C/C=C(/C=O)[C@@H](CC=O)CC(=O)OCCc1ccc(O)cc1 [OLC, oleocanthal] | ≥ 1.25 µM | significantly reduced seeding at all tested concentrations | 85.6 ± 2.2% | either a complete absence or a marked reduction in ThT signal
2 | O=C1c2ccccc2C(=O)c2c(O)c(O)cc(O)c21 [PUR, purpurin] | ≥ 1.25 µM | significantly reduced seeding at all tested concentrations | 31.8 ± 0.6% | either a complete absence or a marked reduction in ThT signal
